According to article PMC8579695, “The Stringent Response Inhibits 70S Ribosome Formation in Staphylococcus aureus by Impeding GTPase-Ribosome Interactions” (mBio, 2021):

System: Era-His association to 30S ribosomes in S. aureus USA300
Test: In vivo ribosome association of Era-His to 30S in S. aureus cells
Format: cell-based, Staphylococcus aureus
Settings: USA300 (p)ppGpp-null Δera iTET-era-His; 0.05 or 60 μg/ml mupirocin for 15 min
Source text: Upon induction of the stringent response, cellular levels of (p)ppGpp increase, while concentration of GTP drops ([38]). Having observed decreased association of RA-GTPases to ribosomal subunits in vitro, we wanted to examine the interaction under more physiologically relevant conditions. To investigate RA-GTPases interactions with the ribosome in the bacterial cell, we used an era deletion mutant in a community-acquired methicillin-resistant S. aureus (CA-MRSA) USA300 strain that we had previously constructed ([10]). […] To establish whether induction of the stringent response in bacterial cells leads to a decrease in the association of Era to the 30S subunit, the era mutant was complemented with an Atet-inducible 6×His-tagged version of era using the iTET vector. […] Normalized 30S pools were analyzed for associated Era-His using α-His Western immunoblotting (Fig. 4C). Crude lysates sampled prior to loading on the sucrose gradients were also analyzed to ensure equal loading and equal expression of Era-His between samples (see Fig. S5B). […]
FIG 4 Association of Era to the 30S subunit is reduced under stringent conditions. […] RNA content was analyzed at an absorbance of 260 nm. […] Ribosomal subunits were separated, and the amount of Era-His associated in each strain was detected using HRP-conjugated α-His antibodies. […]

Question: How did the “ribosome association of Era-His after treatment, (p)ppGpp-null strain” value turn out when `C/C(=C\C(=O)OCCCCCCCCC(=O)O)C[C@@H]1OC[C@H](C[C@@H]2O[C@H]2[C@@H](C)[C@H](C)O)[C@@H](O)[C@H]1O` [mupirocin] was run?
Answer: decrease is not seen
